Measurements taken from patent publication US12697290B2, “Cosmetic compounds having two linked maleimide groups, cosmetic preparations, and method for treatment of keratin materials” (TARA BRANDS EUROPE S.L.U., priority 2022, dated 2026).

Experiment: Thiol recombination: reaction of test compound with cysteine reagent, conversion into mono- and bis-Michael-addition products monitored by LC-MS
Conditions: 30° C.; for Conversion at 15 min, bis-Michael-addition product (bis) / Conversion at 15 min, mono-Michael-addition product (mono) / Conversion at 30 min, bis-Michael-addition product (bis) / Conversion at 30 min, mono-Michael-addition product (mono) / Conversion at 60 min, bis-Michael-addition product (bis) / Conversion at 60 min, mono-Michael-addition product (mono): test solution 1 (pH=5.4), 0.05M
Description: N-Fmoc-cysteine (hereinafter C1) or N-Cbz-cysteine (hereinafter C2) were obtained by reduction of their cysteine counterparts via a literature known method. Adv. Syn. Catal., 2020, 362, 5093-5104. DOI: 10.1002/adsc.202000716. “OLAPLEX® No. 0 Intensive Bond Building Hair Treatment” is a commercially available product which comprises an active agent, water, phenoxyethanol and sodium benzoate. The active agent is hereinafter labelled “Olaplex active agent” or “reference compound #2”.
The compound to be tested (1 eq.) was dissolved in an aqueous media (0.02-0.05 M) and 4 eq. of cysteine reagent (N-Fmoc-cysteine (C1) or N-Cbz-cysteine (C2)) were added. Two test solutions were used as aqueous media: test solution 1 was a phosphate buffer (pH=5.4) with or without an emulsifier (e.g. Eumulgin) and test solution 2 was an aqueous solution containing 0.49% (w/w) sodium benzoate and 0.30% (w/w) citric acid with or without an emulsifier (e.g. Eumulgin).
To make the phosphate buffer a solution of 0.1-M solution of citric acid (use citric acid monohydrate) and a 0.2-M solution of Na2HPO4 (use Na2HPO4 or Na2HPO4*2H2O) were prepared and mixed with the following ratio: 44.25 mL/55.75 mL=mL 0.1M-citric acid/mL 0.2M Na2HPO4 to give a buffer solution with pH=5.4.
The tests were performed at ambient temperature of 30° C. under stirring with small magnetic stirrers in LC-MS vials or small glass vials (see picture 1). The reactions were performed under normal atmosphere. The reactions were monitored by LC-MS. The reaction scale was between 4 and 10 mg of tested compound. To calculate the conversion into products the ratio between cysteine reagent, mono-Michael-addition product (mono) and bis-Michael-addition product (bis) as shown in the following schemes were compared.

[1] = test solution 1 (pH=5.4)+1% eumulgin, 0.02M
[2] = test solution 1 (pH=5.4)+1% eumulgin, 0.02M, 60 min
[3] = test solution 1 (pH=5.4)+2.5% eumulgin, 0.02M
[4] = test solution 1 (pH=5.4)+2.5% eumulgin, 0.02M, 60 min
[5] = test solution 2+1% Eumulgin, 0.02M
[6] = test solution 2+1% Eumulgin, 0.02M, 60 min

Structure (SMILES)	Conversion at 30 min, bis [1]	Conversion at 30 min, mono [1]	Conversion at 60 min, bis [2]	Conversion at 60 min, mono [2]	Conversion at 30 min, bis [3]	Conversion at 60 min, bis [4]	Conversion at 5 h, bis [3]	Conversion at 15 min, bis-Michael-addition product (bis)	Conversion at 15 min, mono-Michael-addition product (mono)	Conversion at 30 min, bis-Michael-addition product (bis)	Conversion at 30 min, mono-Michael-addition product (mono)	Conversion at 60 min, bis-Michael-addition product (bis) (60 min)	Conversion at 60 min, mono-Michael-addition product (mono) (60 min)	Conversion at 30 min, bis [5]	Conversion at 30 min, mono [5]	Conversion at 60 min, bis [6]	Conversion at 60 min, mono [6]	Conversion at 60 min, mono and bis (test solution 2+1% Eumulgin, 0.02M, 60 min, mono and bis together, peaks are not separated in LC-MS)
O=C1C=CC(=O)N1CCCOCCOCCOCCCN1C(=O)C=CC1=O [Reference compound #1, reference compound]	50% bis	0% mono	60% bis	0% mono	97% bis	88% bis	82% bis	9% bis	0% mono	10% bis	0% mono	22% bis	29% mono	30% bis	30% mono	56% bis	9% mono	–
O=C1C=CC(=O)N1CCCOCC12CC(COCCCN3C(=O)C=CC3=O)(C1)C2 [SPC-TB-0001]	–	–	–	–	–	–	–	15% bis	0% mono	28% bis	0% mono	21% bis	0% mono	–	–	–	–	–
O=C1C=CC(=O)N1CCOCC12CC(COCCN3C(=O)C=CC3=O)(C1)C2 [SPC-TB-0002, 1,1′-(((bicyclo[1.1.1]pentane-1,3-diylbis(methylene))bis(oxy))bis(ethane-2,1-diyl))bis(1H-pyrrole-2,5-dione)]	–	–	–	–	–	–	–	17% bis	0% mono	11% bis	0% mono	10% bis	0% mono	–	–	–	–	–
O=C1C=CC(=O)N1CCCOCC12CCC(COCCCN3C(=O)C=CC3=O)(CC1)CC2 [SPC-TB-0003]	–	–	–	–	–	–	–	29% bis	9% mono	77% bis	10% mono	–	–	–	–	–	–	–
O=C1C=CC(=O)N1CCOCCOCC12CC(COCCOCCN3C(=O)C=CC3=O)(C1)C2 [SPC-TB-0007, 1,1′-(((((bicyclo[1.1.1]pentane-1,3-diylbis(methylene))bis(oxy))bis(ethane-2,1-diyl))bis(oxy))bis(ethane-2,1-diyl))bis(1H-pyrrole-2,5-dione)]	53% bis	20% mono	67% bis	9% mono	79% bis	79% bis	73% bis	24% bis	47% mono	22% bis	66% mono	50% bis	37% mono	26% bis	26% mono	44% bis	10% mono	–
O=C1C=CC(=O)N1CCOCCOCCOCC12CC(COCCOCCOCCN3C(=O)C=CC3=O)(C1)C2 [SPC-TB-0013]	67% bis	16% mono	66% bis	15% mono	57% bis	57% bis	46% bis	–	–	–	–	–	–	36% bis	10% mono	–	–	50% mono and bis*
